Results taken from patent US20240247080A1, “GLP1/GIP/NPY2 RECEPTOR TRIPLE AGONISTS” (Boehringer Ingelheim International GmbH, priority 2022, published 2024).
Like-named read-outs stand apart in the source and are kept apart here. Starred links: 1 amine or outer side, 2 acyl side, 3 side chain; linkers in the order of their positions; H or OH if unused. Non-standard residues stand in square brackets, D forms with d. Groups on a side chain read outwards from the residue. No end group written: not given here. *: point of attachment. C20 diacid = O=C(O)CCCCCCCCCCCCCCCCCCC(=O)*; C18 diacid = O=C(O)CCCCCCCCCCCCCCCCC(=O)*; γGlu = O=C(O)[C@H](CCC(=O)[*:2])N[*:1]; εLys = N[C@@H](CCCCN[*:1])C(=O)[*:2]; AEEA = NCCOCCOCC(=O)O; Aib = CC(C)(N)C(=O)O

Experiments:
Format in all cases: cell-based
Details in all cases: CreLuc reporter gene assay
hGLP1R = target: T1, hGLP1R (Homo sapiens, UniProt P43220); test: hGLP1R CreLuc reporter gene assay in 0.5% and 100% plasma
T1 construct: expressed in transfected cells; host or cells: HEK-293 cells carrying a CRE-luciferase reporter gene
How it was run: (§1)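 HEK cells (GLP-1R, NPY2R) or CHO cells (GIPR) carrying a CRE-luciferase reporter, incubated 4 h at 37 °C with peptides in HBSS/20 mM HEPES pH 7.4 plus 0.5% human plasma, or in 100% plasma. Luminescence read; EC50 from 8-point variable-slope sigmoid fits.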

hNPY2R = target: T2, hNPY2R (Homo sapiens, UniProt P49146); test: hNPY2R CreLuc reporter gene assay in 0.5% and 100% plasma
T2 construct: expressed in transfected cells; host or cells: HEK-293 cells carrying a CRE-luciferase reporter gene
T2 sequence (P49146 1-381): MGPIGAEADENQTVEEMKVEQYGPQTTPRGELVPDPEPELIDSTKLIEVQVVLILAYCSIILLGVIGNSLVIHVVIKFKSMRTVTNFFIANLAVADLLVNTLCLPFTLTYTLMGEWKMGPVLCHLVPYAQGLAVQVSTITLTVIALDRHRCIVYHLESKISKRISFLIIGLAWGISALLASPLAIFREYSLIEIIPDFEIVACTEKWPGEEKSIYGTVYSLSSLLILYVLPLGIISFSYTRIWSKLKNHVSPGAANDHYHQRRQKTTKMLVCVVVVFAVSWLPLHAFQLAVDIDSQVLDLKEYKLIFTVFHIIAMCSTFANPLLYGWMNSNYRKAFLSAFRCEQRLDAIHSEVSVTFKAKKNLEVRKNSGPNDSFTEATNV
How it was run: as §1

hGIPR = target: T3, hGIPR (Homo sapiens, UniProt P48546); test: hGIPR CreLuc reporter gene assay in 0.5% and 100% plasma
T3 construct: expressed in transfected cells; host or cells: CHO cells carrying a CRE-luciferase reporter gene
T3 sequence (P48546 22-466): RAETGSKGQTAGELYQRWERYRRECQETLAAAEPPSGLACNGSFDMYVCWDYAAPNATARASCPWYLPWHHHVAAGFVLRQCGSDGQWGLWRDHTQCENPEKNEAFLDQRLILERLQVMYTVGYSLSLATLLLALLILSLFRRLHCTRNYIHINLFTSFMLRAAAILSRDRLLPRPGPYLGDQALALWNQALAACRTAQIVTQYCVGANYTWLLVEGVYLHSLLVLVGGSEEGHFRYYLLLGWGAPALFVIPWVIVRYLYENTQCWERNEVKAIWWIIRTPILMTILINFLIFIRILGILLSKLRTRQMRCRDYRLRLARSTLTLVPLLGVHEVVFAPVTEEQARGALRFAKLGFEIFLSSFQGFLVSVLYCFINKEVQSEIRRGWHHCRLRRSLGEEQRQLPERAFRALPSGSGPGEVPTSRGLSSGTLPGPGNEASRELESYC
How it was run: as §1

[1] = 0.5% human plasma, read-out: hGLP1R 0.5% hP
[2] = 100% human plasma, read-out: hGLP1R 100% hP
[3] = 0.5% human plasma, read-out: hNPY2R 0.5% hP
[4] = 0.5% human plasma, read-out: hGIPR 0.5% hP
[5] = 100% human plasma, read-out: hGIPR 100% hP
[6] = 100% human plasma, read-out: hNPY2R 100% hP

T1 sequence (P43220 24-463): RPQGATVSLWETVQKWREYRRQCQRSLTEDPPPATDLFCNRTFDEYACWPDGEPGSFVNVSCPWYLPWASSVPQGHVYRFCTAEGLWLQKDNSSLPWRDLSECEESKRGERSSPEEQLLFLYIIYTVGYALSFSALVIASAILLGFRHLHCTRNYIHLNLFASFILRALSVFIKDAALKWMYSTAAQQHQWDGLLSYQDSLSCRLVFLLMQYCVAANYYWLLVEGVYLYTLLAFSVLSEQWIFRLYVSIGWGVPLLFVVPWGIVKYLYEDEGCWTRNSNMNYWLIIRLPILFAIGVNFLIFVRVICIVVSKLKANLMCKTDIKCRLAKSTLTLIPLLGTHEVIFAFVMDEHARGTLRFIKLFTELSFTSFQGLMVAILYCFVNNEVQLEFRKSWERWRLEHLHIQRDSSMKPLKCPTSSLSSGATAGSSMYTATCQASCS

Row | Compound | EC50 (hGLP1R; [1]) | EC50 (hGLP1R; [2]) | EC50 (hNPY2R; [3]) | EC50 (hGIPR; [4]) | EC50 (hGIPR; [5]) | EC50 (hNPY2R; [6])
1 | CC[C@H](C)[C@H](NC(=O)[C@H](CC(C)C)NC(=O)[C@H](Cc1c[nH]c2ccccc12)NC(=O)[C@H](CCC(=O)O)NC(=O)[C@@H](NC(=O)[C@H](Cc1ccccc1)NC(=O)[C@H](C)NC(=O)C(C)(C)NC(=O)[C@H](CCC(N)=O)NC(=O)[C@H](C)NC(=O)[C@H](CCC(N)=O)NC(=O)[C@H](CCCCN)NC(=O)[C@H](CCC(=O)O)NC(=O)[C@H](CC(C)C)NC(=O)C(C)(C)NC(=O)[C@@H](NC(=O)[C@H](CO)NC(=O)[C@H](Cc1ccc(O)cc1)NC(=O)[C@H](CC(=O)O)NC(=O)[C@H](CO)NC(=O)[C@@H](NC(=O)[C@H](Cc1ccccc1)NC(=O)[C@@H](NC(=O)CNC(=O)[C@H](CCC(=O)O)NC(=O)C(C)(C)NC(=O)[C@@H](N)Cc1ccc(O)cc1)[C@@H](C)O)[C@@H](C)O)[C@@H](C)CC)C(C)C)C(=O)N[C@@H](CCCCNC(=O)[C@@H](N)CCCCNC(=O)CC[C@H](NC(=O)CC[C@H](NC(=O)CC[C@H](NC(=O)CC[C@H](NC(=O)CC[C@H](NC(=O)CC[C@H](NC(=O)CCCCCCCCCCCCCCCCCCC(=O)O)C(=O)O)C(=O)O)C(=O)O)C(=O)O)C(=O)O)C(=O)O)C(=O)NCC(=O)NCC(=O)N1CCC[C@H]1C(=O)N[C@@H](CO)C(=O)N[C@@H](CO)C(=O)NCC(=O)N[C@@H](CCC(=O)O)C(=O)N[C@@H](CO)C(=O)N[C@@H](CC(C)C)C(=O)N[C@@H](CCCNC(=N)N)C(=O)N[C@@H](Cc1c[nH]cn1)C(=O)N[C@@H](Cc1ccc(O)cc1)C(=O)N[C@@H](Cc1ccc(O)cc1)C(=O)N[C@@H](CC(N)=O)C(=O)N[C@@H](Cc1c[nH]c2ccccc12)C(=O)N[C@@H](CC(C)C)C(=O)N[C@H](C(=O)N[C@@H](CCCNC(=N)N)C(=O)N[C@@H](CCC(N)=O)C(=O)N[C@@H](CCCNC(=N)N)C(=O)N[C@@H](Cc1ccc(O)cc1)C(N)=O)[C@@H](C)O [Compound 127, Y-Aib-E-G-T-F-T-S-D-Y-S-I-Aib-L-E-K-Q-A-Q-Aib-A-F-V-E-W-L-I-K(1,3)-GGPSSGESLRHYYNWLTRQRY-NH2.C20DA-gGlu-gGlu-gGlu-gGlu-gGlu-gGlu-eLys(1,2)] | 0.04 nM | 1.6 nM | 13.2 nM | 0.05 nM | 0.84 nM | –
2 | Y[Aib]EGTFTSDYSI[Aib]LEKQAQ[Aib]AFVQWLIK([AEEA-AEEA-γGlu-γGlu-γGlu-γGlu-C20 diacid])GGPEEPASLRHYYNWLTRQRY-NH2 [Compound 77, Y-Aib-E-G-T-F-T-S-D-Y-S-I-Aib-L-E-K-Q-A-Q-Aib-A-F-V-Q-W-L-I-K(1,3)-GGPEEPASLRHYYNWLTRQRY-NH2.C20DA-gGlu-gGlu-gGlu-gGlu-OEG-OEG(1,2)] | 0.24 nM | – | 13.7 nM | 0.32 nM | – | 46.3 nM
3 | H-Y[Aib]EGTFTSDYSI[Aib]LEKQAQ[Aib]AFVEWLIK([εLys-γGlu-γGlu-γGlu-γGlu-γGlu-γGlu-C20 diacid])GGPSYGASLRHYYNWLTRQRY-NH2 [Compound 232, Y-Aib-E-G-T-F-T-S-D-Y-S-I-Aib-L-E-K-Q-A-Q-Aib-A-F-V-E-W-L-I-K(1,3)-GGPSYGASLRHYYNWLTRQRY-NH2.C20DA-gGlu-gGlu-gGlu-gGlu-gGlu-gGlu-eLys(1,2)] | 0.21 nM | – | 15.3 nM | 0.19 nM | 1.64 nM | 36.8 nM
4 | H-Y[Aib]EGTFTSDYSI[Aib]LEKQAQ[Aib]AFVEWLIK([AEEA-AEEA-Glu-Glu-Glu-C18 diacid])GGPSEGASLRHYYNWLTRQRY-NH2 [Compound 298, Y-Aib-E-G-T-F-T-S-D-Y-S-I-Aib-L-E-K-Q-A-Q-Aib-A-F-V-E-W-L-I-K(1,3)-GGPSEGASLRHYYNWLTRQRY-NH2.C18DA-E-E-E-OEG-OEG(1,2)] | 0.11 nM | – | 12.1 nM | 0.13 nM | 1.27 nM | –
5 | H-Y[Aib]EGTFTSDYSI[Aib]LEKQAQ[Aib]AFVEWLIK([εLys-γGlu-γGlu-γGlu-γGlu-γGlu-γGlu-C20 diacid])GGPSSGASIRHYYNWLTRQRY-NH2 [Compound 132, Y-Aib-E-G-T-F-T-S-D-Y-S-I-Aib-L-E-K-Q-A-Q-Aib-A-F-V-E-W-L-I-K(1,3)-GGPSSGASIRHYYNWLTRQRY-NH2.C20DA-gGlu-gGlu-gGlu-gGlu-gGlu-gGlu-eLys(1,2)] | 0.14 nM | – | – | 0.22 nM | – | 45.4 nM
6 | CC[C@H](C)[C@H](NC(=O)[C@H](CC(C)C)NC(=O)[C@H](Cc1c[nH]c2ccccc12)NC(=O)[C@H](CCC(=O)O)NC(=O)[C@@H](NC(=O)[C@H](Cc1ccccc1)NC(=O)[C@H](C)NC(=O)C(C)(C)NC(=O)[C@H](CCC(N)=O)NC(=O)[C@H](C)NC(=O)[C@H](CCC(N)=O)NC(=O)[C@H](CCCCN)NC(=O)[C@H](CCC(=O)O)NC(=O)[C@H](CC(C)C)NC(=O)C(C)(C)NC(=O)[C@@H](NC(=O)[C@H](CO)NC(=O)[C@H](Cc1ccc(O)cc1)NC(=O)[C@H](CC(=O)O)NC(=O)[C@H](CO)NC(=O)[C@@H](NC(=O)[C@H](Cc1ccccc1)NC(=O)[C@@H](NC(=O)CNC(=O)[C@H](CCC(=O)O)NC(=O)C(C)(C)NC(=O)[C@@H](N)Cc1ccc(O)cc1)[C@@H](C)O)[C@@H](C)O)[C@@H](C)CC)C(C)C)C(=O)N[C@@H](CCCCNC(=O)[C@@H](N)CCCCNC(=O)CC[C@H](NC(=O)CC[C@H](NC(=O)CC[C@H](NC(=O)CC[C@H](NC(=O)CC[C@H](NC(=O)CC[C@H](NC(=O)CCCCCCCCCCCCCCCCCCC(=O)O)C(=O)O)C(=O)O)C(=O)O)C(=O)O)C(=O)O)C(=O)O)C(=O)NCC(=O)NCC(=O)N1CCC[C@H]1C(=O)N[C@@H](CO)C(=O)N[C@@H](CO)C(=O)NCC(=O)N[C@@H](CCC(N)=O)C(=O)N[C@@H](CO)C(=O)N[C@@H](CC(C)C)C(=O)N[C@@H](CCCNC(=N)N)C(=O)N[C@@H](Cc1c[nH]cn1)C(=O)N[C@@H](Cc1ccc(O)cc1)C(=O)N[C@@H](Cc1ccc(O)cc1)C(=O)N[C@@H](CC(N)=O)C(=O)N[C@@H](Cc1c[nH]c2ccccc12)C(=O)N[C@@H](CC(C)C)C(=O)N[C@H](C(=O)N[C@@H](CCCNC(=N)N)C(=O)N[C@@H](CCC(N)=O)C(=O)N[C@@H](CCCNC(=N)N)C(=O)N[C@@H](Cc1ccc(O)cc1)C(N)=O)[C@@H](C)O [Compound 84, Y-Aib-E-G-T-F-T-S-D-Y-S-I-Aib-L-E-K-Q-A-Q-Aib-A-F-V-E-W-L-I-K(1,3)-GGPSSGQSLRHYYNWLTRQRY-NH2.C20DA-gGlu-gGlu-gGlu-gGlu-gGlu-gGlu-eLys(1,2)] | 0.13 nM | – | – | 0.23 nM | 1.43 nM | 35.2 nM
7 | H-Y[Aib]EGTFTSDYSI[Aib]LEKQAE[Aib]AFVEWLIK([γGlu-γGlu-γGlu-γGlu-C18 diacid])GGPSEGASLRHYYNWLTRQRY-NH2 [Compound 262, Y-Aib-E-G-T-F-T-S-D-Y-S-I-Aib-L-E-K-Q-A-E-Aib-A-F-V-E-W-L-I-K(1,3)-GGPSEGASLRHYYNWLTRQRY-NH2.C18DA-gGlu-gGlu-gGlu-gGlu(1,2)] | 0.13 nM | – | 13.2 nM | 0.08 nM | 0.53 nM | –
8 | Y[Aib]EGTFTSDYSI[Aib]LEKQAE[Aib]AFVEWLIK([AEEA-AEEA-γGlu-γGlu-γGlu-γGlu-C18 diacid])GGPSSGASLRHYYNWLTRQRY-NH2 [Compound 150, Y-Aib-E-G-T-F-T-S-D-Y-S-I-Aib-L-E-K-Q-A-E-Aib-A-F-V-E-W-L-I-K(1,3)-GGPSSGASLRHYYNWLTRQRY-NH2.C18DA-gGlu-glu-Glu-Glu-OEG-OEG(1,2)] | 0.31 nM | – | 16.7 nM | 0.27 nM | – | –
9 | H-Y[Aib]EGTFTSDYSI[Aib]LEKQAQ[Aib]AFVEWLIK([AEEA-AEEA-γGlu-γGlu-γGlu-γGlu-C20 diacid])GGPEEPASLRHYYNWLTRQRY-NH2 [Compound 206, Y-Aib-E-G-T-F-T-S-D-Y-S-I-Aib-L-E-K-Q-A-Q-Aib-A-F-V-E-W-L-I-K(1,3)-GGPEEPASLRHYYNWLTRQRY-NH2.C20DA-gGlu-gGlu-gGlu-gGlu-OEG-OEG(1,2)] | – | 17.2 nM | 13.4 nM | 0.25 nM | – | –
